Experiment [1] concerns the target Peroxisome proliferator-activated receptor gamma/Nuclear receptor coactivator 2 (Homo sapiens, UniProt P37231). The class given is functional.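 Also: agonist potency for raising coactivator recruitment to the receptor.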
The target of experiment [2] is Peroxisome proliferator-activated receptor gamma/Nuclear receptor coactivator 1 (Homo sapiens, UniProt P37231). The class given is functional.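 Also: agonist potency as compounds enhance coactivator SRC-1 recruitment to PPARgamma.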
Peroxisome proliferator-activated receptor gamma/Nuclear receptor coactivator 1, sequence (P37231 whole entry): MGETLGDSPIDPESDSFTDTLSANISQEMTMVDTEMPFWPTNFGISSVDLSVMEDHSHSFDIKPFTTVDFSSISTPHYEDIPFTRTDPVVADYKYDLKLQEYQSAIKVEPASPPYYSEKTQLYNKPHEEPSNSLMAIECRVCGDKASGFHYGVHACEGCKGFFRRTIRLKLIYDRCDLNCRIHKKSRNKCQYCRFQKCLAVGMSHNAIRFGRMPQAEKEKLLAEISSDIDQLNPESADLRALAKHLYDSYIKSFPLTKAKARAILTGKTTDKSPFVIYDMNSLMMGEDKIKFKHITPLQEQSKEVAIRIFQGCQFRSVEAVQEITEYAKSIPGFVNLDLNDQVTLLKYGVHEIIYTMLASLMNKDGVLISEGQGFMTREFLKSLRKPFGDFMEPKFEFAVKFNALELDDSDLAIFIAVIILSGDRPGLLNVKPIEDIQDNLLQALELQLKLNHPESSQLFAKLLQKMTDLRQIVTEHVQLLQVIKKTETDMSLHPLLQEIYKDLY
Peroxisome proliferator-activated receptor gamma/Nuclear receptor coactivator 1, sequence (Q15788 whole entry, further chain): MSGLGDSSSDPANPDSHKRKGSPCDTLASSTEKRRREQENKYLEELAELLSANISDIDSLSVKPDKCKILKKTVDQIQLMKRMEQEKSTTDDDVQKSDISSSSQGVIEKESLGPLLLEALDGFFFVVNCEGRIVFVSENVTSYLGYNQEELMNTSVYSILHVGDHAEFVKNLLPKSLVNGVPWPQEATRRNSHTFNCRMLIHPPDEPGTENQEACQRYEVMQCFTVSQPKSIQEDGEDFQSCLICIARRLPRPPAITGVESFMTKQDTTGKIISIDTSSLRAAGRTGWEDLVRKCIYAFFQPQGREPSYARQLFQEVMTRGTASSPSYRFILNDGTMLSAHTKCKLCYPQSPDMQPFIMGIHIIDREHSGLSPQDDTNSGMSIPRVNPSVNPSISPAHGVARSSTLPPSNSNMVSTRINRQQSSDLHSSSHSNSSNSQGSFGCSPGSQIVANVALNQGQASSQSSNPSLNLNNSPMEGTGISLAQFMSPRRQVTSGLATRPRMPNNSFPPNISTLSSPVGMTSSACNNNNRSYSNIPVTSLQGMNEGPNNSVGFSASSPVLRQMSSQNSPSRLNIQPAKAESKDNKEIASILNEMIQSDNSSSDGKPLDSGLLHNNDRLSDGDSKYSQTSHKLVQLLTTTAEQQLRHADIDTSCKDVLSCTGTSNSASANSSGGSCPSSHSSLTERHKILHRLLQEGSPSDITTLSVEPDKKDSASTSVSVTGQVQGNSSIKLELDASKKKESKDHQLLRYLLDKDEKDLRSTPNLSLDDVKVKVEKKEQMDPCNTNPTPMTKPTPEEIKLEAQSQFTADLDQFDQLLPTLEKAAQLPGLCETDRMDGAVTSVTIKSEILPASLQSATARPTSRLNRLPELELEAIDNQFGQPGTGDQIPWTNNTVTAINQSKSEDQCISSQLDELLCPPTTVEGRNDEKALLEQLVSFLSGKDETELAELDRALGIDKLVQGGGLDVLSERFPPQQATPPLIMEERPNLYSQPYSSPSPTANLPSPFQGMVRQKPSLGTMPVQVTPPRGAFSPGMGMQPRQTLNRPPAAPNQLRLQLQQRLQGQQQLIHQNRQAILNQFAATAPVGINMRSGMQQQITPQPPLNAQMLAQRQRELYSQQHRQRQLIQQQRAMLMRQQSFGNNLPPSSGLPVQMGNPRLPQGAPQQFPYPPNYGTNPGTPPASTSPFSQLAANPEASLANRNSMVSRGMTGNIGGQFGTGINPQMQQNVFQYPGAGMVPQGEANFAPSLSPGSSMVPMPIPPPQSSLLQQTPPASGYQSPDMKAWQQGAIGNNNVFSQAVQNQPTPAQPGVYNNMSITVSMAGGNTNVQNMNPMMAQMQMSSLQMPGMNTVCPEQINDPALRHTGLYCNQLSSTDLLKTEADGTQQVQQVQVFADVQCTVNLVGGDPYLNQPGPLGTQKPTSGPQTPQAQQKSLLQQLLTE
Experiment [3] has as its target Peroxisome proliferator-activated receptor gamma/Nuclear receptor coactivator 3 (Homo sapiens, UniProt P37231). The experiment is classed as functional.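 Also: agonist potency for raising coactivator recruitment to the receptor.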
In the next experiment the target is T1, ORF 73 (Human herpesvirus 8, UniProt O40947).
T1 sequence (O40947 whole entry): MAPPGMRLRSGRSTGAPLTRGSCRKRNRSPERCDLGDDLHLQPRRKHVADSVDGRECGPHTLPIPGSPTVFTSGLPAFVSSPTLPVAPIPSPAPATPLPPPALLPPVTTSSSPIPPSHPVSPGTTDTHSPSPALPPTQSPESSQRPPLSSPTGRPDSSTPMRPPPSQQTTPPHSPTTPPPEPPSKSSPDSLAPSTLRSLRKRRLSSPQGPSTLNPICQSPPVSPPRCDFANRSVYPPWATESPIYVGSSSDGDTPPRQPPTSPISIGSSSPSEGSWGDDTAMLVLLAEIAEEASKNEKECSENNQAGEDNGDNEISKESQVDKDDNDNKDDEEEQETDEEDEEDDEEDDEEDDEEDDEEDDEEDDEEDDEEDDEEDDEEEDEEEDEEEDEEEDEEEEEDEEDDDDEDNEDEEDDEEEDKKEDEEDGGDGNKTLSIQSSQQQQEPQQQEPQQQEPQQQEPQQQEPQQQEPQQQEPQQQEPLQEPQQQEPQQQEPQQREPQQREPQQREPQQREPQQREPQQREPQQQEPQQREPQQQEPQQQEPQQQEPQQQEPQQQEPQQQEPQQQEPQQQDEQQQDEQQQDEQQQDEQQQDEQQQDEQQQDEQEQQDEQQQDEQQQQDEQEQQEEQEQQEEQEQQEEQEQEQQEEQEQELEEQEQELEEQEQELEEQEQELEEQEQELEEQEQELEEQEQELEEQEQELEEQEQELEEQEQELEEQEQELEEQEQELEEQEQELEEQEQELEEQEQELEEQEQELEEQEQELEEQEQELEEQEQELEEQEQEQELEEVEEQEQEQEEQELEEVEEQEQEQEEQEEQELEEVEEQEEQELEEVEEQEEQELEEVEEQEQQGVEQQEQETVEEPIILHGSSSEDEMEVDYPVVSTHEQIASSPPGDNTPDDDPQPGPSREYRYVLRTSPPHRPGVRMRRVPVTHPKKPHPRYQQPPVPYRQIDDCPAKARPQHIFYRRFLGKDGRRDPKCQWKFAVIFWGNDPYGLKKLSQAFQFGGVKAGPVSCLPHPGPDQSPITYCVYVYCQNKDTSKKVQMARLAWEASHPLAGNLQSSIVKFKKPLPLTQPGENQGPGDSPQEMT
As to the kind of experiment: KSHV LANA DNA-binding disruption – biochemical, fluorescence polarization, cherry-picked samples, dose response (AID 504725).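 Also: fluorescence polarization of a labeled DNA duplex reporting LANA DNA binding; potency is for inhibitors that block LANA binding to the DNA.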 Set-up: species or system Human gammaherpesvirus 8.

In experiment [4] the target is T2, RNA-binding protein pos-1 (Caenorhabditis elegans, UniProt G5EF15).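 Also: purified POS-1 fused to maltose binding protein made in E. coli; potency of compounds blocking POS-1 binding to fluorescent RNA.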
T2 sequence (G5EF15 whole entry): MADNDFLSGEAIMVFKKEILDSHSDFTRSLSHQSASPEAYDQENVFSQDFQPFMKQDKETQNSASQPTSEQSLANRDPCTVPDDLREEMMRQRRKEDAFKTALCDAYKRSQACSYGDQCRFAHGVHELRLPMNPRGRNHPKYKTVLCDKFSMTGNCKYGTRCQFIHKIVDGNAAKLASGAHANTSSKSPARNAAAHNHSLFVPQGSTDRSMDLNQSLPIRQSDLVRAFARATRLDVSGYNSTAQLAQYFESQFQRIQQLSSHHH
The experiment is described as follows: disruptors of C. elegans POS-1 RNA interaction – biochemical, fluorescence polarization, dose response (AID 1964). (Polarisation of emitted light reports the rotation of a fluorescent probe.)

The target in experiment [5] is T3, Zinc finger protein mex-5 (Caenorhabditis elegans, UniProt Q9XUB2).
T3 sequence (Q9XUB2 whole entry): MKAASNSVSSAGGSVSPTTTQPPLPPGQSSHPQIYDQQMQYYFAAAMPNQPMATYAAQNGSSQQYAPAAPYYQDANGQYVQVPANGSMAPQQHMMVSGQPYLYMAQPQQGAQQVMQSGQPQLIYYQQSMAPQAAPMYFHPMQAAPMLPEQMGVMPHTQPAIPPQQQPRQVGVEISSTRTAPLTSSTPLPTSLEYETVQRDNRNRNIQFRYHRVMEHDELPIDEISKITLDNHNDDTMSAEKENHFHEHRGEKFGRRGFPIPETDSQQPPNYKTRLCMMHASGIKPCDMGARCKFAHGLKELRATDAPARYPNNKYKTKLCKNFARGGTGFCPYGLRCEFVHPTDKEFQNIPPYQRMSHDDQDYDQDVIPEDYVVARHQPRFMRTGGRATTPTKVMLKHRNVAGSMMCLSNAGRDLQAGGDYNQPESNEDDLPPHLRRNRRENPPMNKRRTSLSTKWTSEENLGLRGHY
The experiment is described as follows: potency of MEX-5 RNA-binding blockers – biochemical, C. elegans, fluorescence polarization, dose response (AID 1960).

For a further experiment, the target named is T4, Protein skinhead-1 (Caenorhabditis elegans, UniProt P34707).
T4 sequence (P34707 whole entry): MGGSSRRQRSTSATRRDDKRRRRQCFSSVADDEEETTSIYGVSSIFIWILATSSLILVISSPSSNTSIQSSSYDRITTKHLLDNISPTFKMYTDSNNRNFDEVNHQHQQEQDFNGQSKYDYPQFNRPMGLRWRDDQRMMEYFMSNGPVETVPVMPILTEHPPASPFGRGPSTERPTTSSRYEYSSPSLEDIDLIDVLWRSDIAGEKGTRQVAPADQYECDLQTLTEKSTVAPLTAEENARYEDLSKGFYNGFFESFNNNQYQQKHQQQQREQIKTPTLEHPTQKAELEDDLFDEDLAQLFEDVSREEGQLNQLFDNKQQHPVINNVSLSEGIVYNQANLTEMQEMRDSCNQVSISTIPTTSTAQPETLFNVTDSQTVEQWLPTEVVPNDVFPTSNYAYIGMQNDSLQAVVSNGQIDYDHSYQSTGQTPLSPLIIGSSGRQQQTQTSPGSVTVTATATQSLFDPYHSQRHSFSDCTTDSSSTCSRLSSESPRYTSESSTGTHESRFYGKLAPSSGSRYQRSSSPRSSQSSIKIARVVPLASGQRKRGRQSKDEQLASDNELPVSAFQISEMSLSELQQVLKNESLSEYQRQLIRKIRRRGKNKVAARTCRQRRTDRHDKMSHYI
The class given is functional.

In experiment [6] the target is T5, Oxysterols receptor LXR-beta (Homo sapiens, UniProt P55055).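 Also: Cell-based luminescence dose-response assay of agonist activity at LXR, run as a confirmatory counterscreen to a daf-12 agonist screen; HEK293 cells with Gal4-LXR fusion and GAL4-driven luciferase reporter; agonist potency from rising luciferase signal of a Gal4-LXR reporter.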
T5 sequence (P55055 whole entry): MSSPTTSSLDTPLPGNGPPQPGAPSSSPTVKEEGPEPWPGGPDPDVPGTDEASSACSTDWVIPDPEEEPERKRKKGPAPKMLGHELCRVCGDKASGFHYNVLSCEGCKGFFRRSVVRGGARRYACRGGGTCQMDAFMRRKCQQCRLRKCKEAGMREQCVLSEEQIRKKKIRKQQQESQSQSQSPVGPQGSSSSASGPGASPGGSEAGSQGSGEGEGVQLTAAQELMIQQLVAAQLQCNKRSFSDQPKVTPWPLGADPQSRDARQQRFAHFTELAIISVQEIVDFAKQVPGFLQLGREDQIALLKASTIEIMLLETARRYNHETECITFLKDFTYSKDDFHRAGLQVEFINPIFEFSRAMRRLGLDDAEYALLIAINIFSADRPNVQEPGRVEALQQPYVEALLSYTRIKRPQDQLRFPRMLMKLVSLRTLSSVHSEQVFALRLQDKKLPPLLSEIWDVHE
The experiment is classed as functional, cell-based.

The target in experiment [7] is DNA dC->dU-editing enzyme APOBEC-3G (Homo sapiens, UniProt Q9HC16). The experiment is described as follows: Dose Response confirmation of small molecule APOBEC3G DNA Deaminase Inhibitors via a fluorescence-based single-stranded DNA deaminase assay. [Related pubchem assays (depositor defined):AID493012, AID493028]. The experiment is classed as functional.
Experiment [8] has as its target Eukaryotic translation initiation factor 4H (Homo sapiens, UniProt Q15056). As to the kind of experiment: inhibitors of translation initiation factor eIF4H – SAR follow-up (AID 435011). The experiment is classed as functional.
The target in experiment [9] is Polyadenylate-binding protein 1 (Homo sapiens, UniProt P11940). The experiment is described as follows: PABP inhibition in translation initiation, SAR follow-up (AID 435018). The class given is functional.
Polyadenylate-binding protein 1, sequence (P11940 whole entry): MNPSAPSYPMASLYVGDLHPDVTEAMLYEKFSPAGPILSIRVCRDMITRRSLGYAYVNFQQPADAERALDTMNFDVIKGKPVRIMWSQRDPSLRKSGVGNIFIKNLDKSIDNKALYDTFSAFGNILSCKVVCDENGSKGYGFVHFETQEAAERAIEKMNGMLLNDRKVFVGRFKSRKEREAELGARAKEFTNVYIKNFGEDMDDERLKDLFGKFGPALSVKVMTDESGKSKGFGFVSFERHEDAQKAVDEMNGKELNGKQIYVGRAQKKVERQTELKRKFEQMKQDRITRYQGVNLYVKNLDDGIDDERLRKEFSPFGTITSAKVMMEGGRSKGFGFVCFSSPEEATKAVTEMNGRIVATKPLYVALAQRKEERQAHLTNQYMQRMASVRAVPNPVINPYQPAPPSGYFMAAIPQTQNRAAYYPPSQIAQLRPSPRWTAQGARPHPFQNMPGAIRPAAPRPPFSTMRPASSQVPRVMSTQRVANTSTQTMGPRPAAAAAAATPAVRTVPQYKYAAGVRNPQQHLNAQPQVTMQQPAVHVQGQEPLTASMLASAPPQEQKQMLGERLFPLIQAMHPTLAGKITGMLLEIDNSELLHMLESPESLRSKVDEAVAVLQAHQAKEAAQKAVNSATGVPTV
Another experiment addresses Genome polyprotein (dengue virus type 2, UniProt P29990). The experiment is described as follows: flavivirus cap methylation enzyme inhibition – biochemical, confirmation dose response, primary screen (AID 588689). The experiment is classed as functional.
Experiment [10] has as its target T6, Rac GTPase-activating protein 1 (Homo sapiens, UniProt Q9H0H5).
T6 sequence (Q9H0H5 whole entry): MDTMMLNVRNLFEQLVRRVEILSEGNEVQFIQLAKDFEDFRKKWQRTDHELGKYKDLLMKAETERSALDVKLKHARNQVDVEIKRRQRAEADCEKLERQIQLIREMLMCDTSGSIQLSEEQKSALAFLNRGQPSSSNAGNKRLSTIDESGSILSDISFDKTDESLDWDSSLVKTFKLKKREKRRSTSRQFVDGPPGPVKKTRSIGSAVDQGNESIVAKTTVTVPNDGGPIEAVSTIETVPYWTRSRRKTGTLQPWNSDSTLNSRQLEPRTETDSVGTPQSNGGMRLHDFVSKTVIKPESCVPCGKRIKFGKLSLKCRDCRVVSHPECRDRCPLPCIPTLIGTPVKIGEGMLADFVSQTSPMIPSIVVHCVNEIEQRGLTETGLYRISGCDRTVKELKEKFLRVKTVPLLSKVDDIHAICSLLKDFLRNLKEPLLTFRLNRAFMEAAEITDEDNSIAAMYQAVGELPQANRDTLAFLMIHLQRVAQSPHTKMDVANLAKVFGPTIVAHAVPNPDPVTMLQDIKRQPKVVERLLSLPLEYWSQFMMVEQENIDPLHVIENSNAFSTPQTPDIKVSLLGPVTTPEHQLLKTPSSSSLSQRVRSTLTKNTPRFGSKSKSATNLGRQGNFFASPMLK
The experiment is described as follows: blockers of MgcRacGAP-driven Rac1 GTP hydrolysis – biochemical, ADP Hunter fluorescence, primary and confirmatory, confirmation (AID 624330). The class given is functional.

Experiment [11] deals with T7, Kappa-type opioid receptor (Homo sapiens, UniProt P41145). The class given is functional.
Another experiment addresses Beta-galactosidase (Escherichia coli, UniProt Q8VNN2). The experiment is classed as functional.
In experiment [12] the target is T7, Kappa-type opioid receptor. The class given is functional. This is another data set of the same source.
Experiment [13] addresses T8, Microphthalmia-associated transcription factor (Homo sapiens, UniProt O75030).
T8 sequence (O75030 whole entry): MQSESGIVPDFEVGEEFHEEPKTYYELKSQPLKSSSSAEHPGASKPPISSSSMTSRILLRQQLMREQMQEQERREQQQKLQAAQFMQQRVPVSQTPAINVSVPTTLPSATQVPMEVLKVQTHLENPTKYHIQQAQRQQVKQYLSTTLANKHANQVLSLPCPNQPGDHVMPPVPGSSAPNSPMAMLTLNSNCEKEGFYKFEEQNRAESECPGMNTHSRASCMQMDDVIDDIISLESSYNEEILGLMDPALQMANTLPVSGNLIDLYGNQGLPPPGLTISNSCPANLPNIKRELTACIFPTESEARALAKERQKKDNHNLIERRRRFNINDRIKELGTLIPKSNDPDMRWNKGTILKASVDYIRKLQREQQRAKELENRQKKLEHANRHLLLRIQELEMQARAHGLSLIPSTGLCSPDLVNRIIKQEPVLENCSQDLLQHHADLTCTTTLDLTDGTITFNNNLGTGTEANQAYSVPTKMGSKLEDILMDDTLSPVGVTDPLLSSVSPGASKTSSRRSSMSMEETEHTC
As to the kind of experiment: reducers of TRPM1 reporter luminescence, concentration series – cell-based, SK-MEL-5, cherry-picked, set 3, MITF inhibitor project, dose response (AID 493073).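 Also: SK-MEL-5 melanoma cells with luciferase driven by the MITF target TRPM1 promoter.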 The class given is functional.

Activity calls are given as the source filed them.

Peroxisome proliferator-activated receptor gamma/Nuclear receptor coactivator 3, sequence (P37231 whole entry): as the sequence (P37231 whole entry) above
Peroxisome proliferator-activated receptor gamma/Nuclear receptor coactivator 3, sequence (Q9Y6Q9 whole entry, further chain): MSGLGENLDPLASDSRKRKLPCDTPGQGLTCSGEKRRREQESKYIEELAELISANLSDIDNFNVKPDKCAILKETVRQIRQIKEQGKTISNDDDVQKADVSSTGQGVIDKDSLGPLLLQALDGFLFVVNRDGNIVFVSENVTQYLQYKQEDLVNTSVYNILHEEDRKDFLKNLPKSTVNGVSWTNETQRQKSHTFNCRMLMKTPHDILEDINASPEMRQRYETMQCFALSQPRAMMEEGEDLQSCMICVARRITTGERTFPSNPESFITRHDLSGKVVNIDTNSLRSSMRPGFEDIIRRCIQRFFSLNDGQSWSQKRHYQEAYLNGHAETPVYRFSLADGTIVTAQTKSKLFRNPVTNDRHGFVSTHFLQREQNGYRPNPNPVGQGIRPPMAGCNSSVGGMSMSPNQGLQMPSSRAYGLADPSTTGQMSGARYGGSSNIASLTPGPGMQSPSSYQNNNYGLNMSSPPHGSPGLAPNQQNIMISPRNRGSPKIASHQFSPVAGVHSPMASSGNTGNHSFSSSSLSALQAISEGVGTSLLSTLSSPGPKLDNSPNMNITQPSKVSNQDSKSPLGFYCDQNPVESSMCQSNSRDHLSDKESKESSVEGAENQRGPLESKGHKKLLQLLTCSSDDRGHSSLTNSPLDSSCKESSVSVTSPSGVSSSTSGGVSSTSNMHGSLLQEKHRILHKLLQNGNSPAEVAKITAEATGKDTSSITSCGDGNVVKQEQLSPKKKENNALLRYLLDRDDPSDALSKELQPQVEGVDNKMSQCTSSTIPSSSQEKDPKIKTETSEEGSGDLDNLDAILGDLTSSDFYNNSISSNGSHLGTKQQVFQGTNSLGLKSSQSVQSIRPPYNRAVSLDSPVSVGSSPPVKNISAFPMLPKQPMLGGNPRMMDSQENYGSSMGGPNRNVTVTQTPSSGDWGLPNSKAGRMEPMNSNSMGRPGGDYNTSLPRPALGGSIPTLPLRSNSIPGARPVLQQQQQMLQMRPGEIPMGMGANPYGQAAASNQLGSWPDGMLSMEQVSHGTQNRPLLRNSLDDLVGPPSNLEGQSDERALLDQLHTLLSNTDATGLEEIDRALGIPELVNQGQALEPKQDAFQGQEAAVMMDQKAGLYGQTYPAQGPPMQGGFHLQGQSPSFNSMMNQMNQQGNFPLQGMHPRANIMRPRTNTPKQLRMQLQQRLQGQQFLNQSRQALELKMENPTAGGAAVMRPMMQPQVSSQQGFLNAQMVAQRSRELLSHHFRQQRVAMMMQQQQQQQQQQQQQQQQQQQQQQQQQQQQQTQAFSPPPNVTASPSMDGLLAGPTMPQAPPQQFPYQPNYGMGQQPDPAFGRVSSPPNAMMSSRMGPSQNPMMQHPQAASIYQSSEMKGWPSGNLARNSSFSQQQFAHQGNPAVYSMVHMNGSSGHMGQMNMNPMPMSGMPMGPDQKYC

With `CCOc1ccc(NC2=NN=C(c3cc(C)n(CC4CCCO4)c3C)CS2)cc1` (centres undefined), the EC50 in [1], in experiment [2] and in [3] was > 79.4 µM (not active) throughout.

On to `CCn1c(SCc2nc(O)c3c(C)c(C(=O)O)sc3n2)nc2ccccc21`, for which the AC50 (in general, the concentration giving half of the maximal activity seen) on ORF 73 is 32.2 µM (active).

`Cc1ccc(OCC(=O)NNC(=O)C(=O)NC(C)(C)C)cc1`: the half-maximal effective concentration (EC50) in experiment [1], in [2] and in [3] was > 79.4 µM (not active) in each case.

For the molecule `O=C(c1cccs1)c1ccc(-c2cccs2)s1`, the EC50 (in general, the concentration that produces a half-maximal response) in experiment [4] was 215 µM (active); in experiment [5], > 300 µM (not active); in experiment [6], > 67.5 µM (inactive); in the experiment “cells”, > 67.5 µM (inactive). Moreover, at Protein skinhead-1, the IC50 (as a rule, the midpoint of a concentration-inhibition curve) was 26.5 µM (active).

As to `COc1ccc(Cn2c(-c3ccc(C)cc3)nc3c(c(=O)c4ccccc4n3C)c2=O)cc1`, the EC50 in [1], in experiment [2] and in experiment [3] was > 79.4 µM (not active) in each case.

With `CCN(CC)c1ccc(NC(=O)c2ccccn2)cc1S(=O)(=O)Nc1ccccc1OC`, the IC50 in [7] was 69.2 µM (active).

Take `O=C(COc1ccc(C=NNC(=O)c2ccc(O)cc2)cc1)Nc1ccc([N+](=O)[O-])cc1`: the values for the IC50 in experiment [8] and in experiment [9] were 5.8 µM (active) and > 100 µM (inactive), respectively.

Regarding `O=C(O)c1ccc2c(c1)C(=O)/C(=C\c1ccco1)C2=O`, the EC50 was > 300 µM (not active) in [4] and 32.1 µM (active) in experiment [5]. Also, the AC50 at ORF 73 is 133 µM (active). Besides, the values for the IC50 (at Genome polyprotein; in experiment [10]) were 12.3 µM (active) and 89.2 µM (active), respectively.

As to `COc1ccc(Cl)cc1NC(=O)COC(=O)c1ccc(NC(N)=O)cc1`, the IC50 in experiment [8] and in experiment [9] was > 100 µM (inactive) in each case.

For `CC1=C/C(=N\NC(=S)Nc2cccnc2)CC(C)(C)C1`, the half-maximal inhibitory concentration (IC50) in experiment [11] is 9.46 µM (active); in experiment [12], above 32 µM. Also, at Beta-galactosidase, the EC50 is > 31.5 µM (inactive). Moreover, the AC50 in experiment [13] was 11 µM (active).

The values above are taken from ChEMBL document CHEMBL1201862, “PubChem BioAssay data set” (2004).
